Source: patent US12479791B2, “Cationic lipid” (Takeda Pharmaceutical Company Limited, priority 2018, dated 2025)

Key:
[1] = Analysis of luciferase siRNA-encapsulated lipid nanoparticle (Production Example 1); format: physicochemical; details: for Rate of encapsulation / Average particle size: luc siRNA lipid nanoparticle; for siRNA concentration: luc siRNA lipid nanoparticle dispersion after dialysis and filtration; for Average particle size: cationic lipid:DPPC:cholesterol:GS-020=60:10.6:28:1.4, Z-average, dynamic light scattering
Excerpt: (§1) The particle size of the lipid particle (in the composition) can be measured by a known approach. For example, the particle size can be calculated as a Z-average particle size by the cumulant analysis of an autocorrelation function using a particle size measurement apparatus Zetasizer Nano ZS (Malvern Instruments) based on a dynamic light scattering measurement technique. The particle size (average particle size) of the lipid particle (in the composition) is, for example, 10 to 200 nm, preferably 60 to 170 nm.
(§2) The concentration and rate of encapsulation of the nucleic acid (e.g., siRNA or mRNA) in the composition of the present invention can be measured by a known approach. For example, the nucleic acid is fluorescently labeled using Quant-iT™ RiboGreen® (Invitrogen Corp.), and the fluorescence intensity can be measured to determine the concentration and the rate of encapsulation. The concentration of the nucleic acid in the composition can be calculated using a calibration curve prepared from aqueous nucleic acid solutions having known concentrations. The rate of encapsulation can be calculated on the basis of the difference in fluorescence intensity between the presence and absence of addition of Triton-X 100 (surfactant for disrupting the lipid particle). The concentration of the nucleic acid in the composition refers to the total concentration of a nucleic acid encapsulated in the lipid particle and an unencapsulated nucleic acid. The rate of encapsulation refers to the ratio of the nucleic acid encapsulated in the lipid particle to all nucleic acids in the composition.
A lipid mixture (cationic lipid:DPPC:cholesterol:GS-020=60:10.6:28:1.4, molar ratio) was dissolved in 90% of EtOH and 10% of a 25 mM acetate buffer solution (pH 4.0) to obtain a 7.4 mg/ml lipid solution. Luciferase (luc) siRNA (see Table 2) was dissolved in a 25 mM acetate buffer solution (pH 4.0) to obtain a 0.15 mg/ml nucleic acid solution. The obtained lipid solution and nucleic acid solution were mixed at a flow rate ratio of 1 ml/min:5 ml/min at room temperature using Asia microfluidic system (Syrris Ltd.) to obtain a dispersion containing a composition. The obtained dispersion was dialyzed against water at room temperature for 1 hour and against PBS at room temperature for 18 hours using Slyde-A-Lyzer (molecular weight cutoff: 20 K, Thermo Fischer Scientific Inc.). Subsequently, the dialysate was filtered through a 0.2 μm syringe filter (Iwaki) and preserved at 4° C. Hereinafter, the particle size of the lipid particle in the composition was calculated as a Z-average particle size by the cumulant analysis of an autocorrelation function using a particle size measurement apparatus Zetasizer Nano ZS (Malvern Instruments) based on a dynamic light scattering measurement technique.

[2] = test system: human liver cancer-derived cell line Hep3B stably expressing luciferase; test: Transfection of cultured cell with siRNA (luciferase knockdown); format: cell-based; details: lipid particle containing luciferase siRNA, 48 hours after addition, read-out: siRNA concentration necessary for 50% knockdown
Procedure: A human liver cancer-derived cell line Hep3B stably expressing luciferase was cultured at a cell density of 6000 cells/well in a 96-well plate. 24 hours later, 10 μl of the lipid particle containing luciferase siRNA was added to the medium. 48 hours after the addition of siRNA, the amount of decrease in expression (knockdown) of luciferase was measured using Picagene LT2.0 kit (Toyobo Co., Ltd.).

FVII gene = test: Hepatic FVII gene knockdown in CCl4 hepatic fibrosis mouse model; format: in vivo; details: male Balb/c mouse, Col1a1 siRNA + FVII siRNA 0.1 + 0.1 mg/kg intravenous, liver 4 days after administration, qPCR normalized with GAPDH
Procedure: (§3) The Col1a1 siRNA-encapsulated lipid nanoparticle was administered at 0.1 mg/kg into the orbital plexus of the vein of each 8-week-old male Balb/c mouse. 3 hours later, CCl4 mixed with corn oil was orally administered at a dose of 0.1 mL/kg (10 mL/kg) by forced single-dose administration (n=6 in each group). 4 days after the administration of the siRNA-encapsulated lipid nanoparticle, the liver was collected from the mouse euthanized under anesthesia, followed by gene expression analysis by quantitative PCR. The Col1a1 gene expression level and the FVII gene expression level were normalized with the expression level of GAPDH. The amount of decrease in Col1a1 gene expression as compared with a siRNA non-administration group was regarded as the rate of knockdown. In mice intravenously given the siRNA-encapsulated lipid nanoparticle formed using the compound of the present invention, the knockdown of the activated stellate cell marker gene Col1a1 gene was strongly observed, as compared with the rate of knockdown of the hepatic parenchymal cell marker gene FVII.

[3] = Analysis of luciferase mRNA-encapsulated lipid nanoparticle (Production Example 2); format: physicochemical
Excerpt: as §1, §2
A lipid mixture (cationic lipid:DPPC:cholesterol:GS-020=60:10.6:28:1.4, molar ratio) was dissolved in 90% of EtOH and 10% of water to obtain an 8.5 mg/ml lipid solution. Luciferase mRNA (TriLink BioTechnologies, Inc.) was dissolved in a 10 mM 2-morpholinoethanesulfonic acid (MES) buffer solution (pH 4.0) to obtain a 0.22 mg/ml nucleic acid solution. The obtained lipid solution and nucleic acid solution were mixed at a flow rate ratio of 3 ml/min:6 ml/min at room temperature using NanoAssemblr apparatus (Precision NanoSystems Inc.) to obtain a dispersion containing a composition. The obtained dispersion was dialyzed against water at room temperature for 1 hour and against PBS at 4° C. for 48 hours using Slyde-A-Lyzer (molecular weight cutoff: 20 K, Thermo Fischer Scientific Inc.). Subsequently, the dialysate was filtered through a 0.2 μm syringe filter (Iwaki) and preserved at 4° C.

[4] = test system: human colorectal cancer-derived cell line HCT116; test: Transfection of cultured cell with mRNA (luciferase luminescence); format: cell-based; details: 10 ng luciferase mRNA, 24 hours, Table 10 (PBS control 293)
Procedure: A human colorectal cancer-derived cell line HCT116 was cultured at a cell density of 6000 cells/well in a 96-well plate. 24 hours later, 10 μl of the lipid particle containing 10 ng of luciferase mRNA was added to the medium. 24 hours after the addition of mRNA, a reagent of Picagene LT2.0 kit (Toyobo Co., Ltd.) was added to the culture plate of HCT116. The luminescence (count per sec (cps)) of luciferase was measured using a luminescence plate reader EnVision (PerkinElmer, Inc.).

[5] = Analysis of Col1a1 siRNA + FVII siRNA-encapsulated lipid nanoparticle (Production Example 3); format: physicochemical
Excerpt: as §1, §2
A lipid mixture (cationic lipid:DPPC:cholesterol:GS-020=60:10.6:28:1.4, molar ratio) was dissolved in 90% of EtOH and 10% of a 25 mM acetate buffer solution (pH 4.0) to obtain a 7.4 mg/ml lipid solution. siRNA against collagen 1a1 (Col1a1) and siRNA against factor VII (FVII) were dissolved in equal weights in a 25 mM acetate buffer solution (pH 4.0) to obtain a 0.15 mg/ml nucleic acid solution. The sequences of Col1a1 siRNA and FVII siRNA were quoted from Hepatology, […], No. 4, 2015, and Silence, Vol. 1, No. 16, 2010, respectively. The obtained lipid solution and nucleic acid solution were mixed at a flow rate ratio of 1 ml/min:5 ml/min using a microfluidic mixing apparatus NanoAssemblr (Precision NanoSystems Inc.) to obtain a dispersion containing a composition. The obtained dispersion was dialyzed against water at room temperature for 1 hour and against PBS at room temperature for 18 hours using Slyde-A-Lyzer (molecular weight cutoff: 20 K, Thermo Fischer Scientific Inc.). Subsequently, the dialysate was filtered through a 0.2 μm syringe filter (Iwaki) and preserved at 4° C. The siRNA-encapsulated lipid nanoparticle was very favorably formed using the compound of the present invention.

Col1a1 gene = test: Hepatic collagen 1a1 gene knockdown in CCl4 hepatic fibrosis mouse model; format: in vivo; details: male Balb/c mouse, Col1a1 siRNA + FVII siRNA 0.1 + 0.1 mg/kg intravenous, liver 4 days after administration, qPCR normalized with GAPDH, vs siRNA non-administration group
Procedure: as §3

Rate of encapsulation [1] | siRNA concentration [1] | Average particle size [1] | IC50 [2] | Compound | Rate of FVII knockdown (FVII gene) | Rate of encapsulation ([3]; luciferase mRNA lipid nanoparticle) | mRNA concentration ([3]; luciferase mRNA lipid nanoparticle dispersion after dialysis and filtration) | Average particle size ([3]; luciferase mRNA lipid nanoparticle, cationic lipid:DPPC:cholesterol:GS-020=60:10.6:28:1.4) | Average luminescence (cps) of 3 wells [4] | Rate of encapsulation ([5]; Col1a1 siRNA + FVII siRNA lipid nanoparticle) | Particle size ([5]; Col1a1 siRNA + FVII siRNA lipid nanoparticle, cationic lipid:DPPC:cholesterol:GS-020=60:10.6:28:1.4) | Col1a1 siRNA + FVII siRNA concentration ([5]; lipid nanoparticle dispersion after dialysis and filtration) | Rate of Col1a1 knockdown (Col1a1 gene)
96% | 415 µg/mL | 71 nm | 14 nM | CCCCCCCC(=O)OCC(COC(=O)CCCCCCC)(COC(=O)CCCN(C)C)COC(=O)C(CCCCCC)CCCCCC [Example 2, 2-(((4-(Dimethylamino)butanoyl)oxy)methyl)-2-(((2-hexyloctanoyl)oxy)methyl)propane-1,3-diyl dioctanoate] | – | – | – | – | – | – | – | – | –
96% | 445 µg/mL | 81 nm | 55 nM | CCCCCCCC(=O)OCC(COC(=O)CCCCCCC)(COC(=O)CCCCN(C)C)COC(=O)C(CCCCCC)CCCCCC [Example 3, 2-(((5-(Dimethylamino)pentanoyl)oxy)methyl)-2-(((2-hexyloctanoyl)oxy)methyl)propane-1,3-diyl dioctanoate] | – | – | – | – | – | – | – | – | –
91% | 121 µg/mL | 73 nm | 190 nM | CCCCCCC(=O)OCC(COC(=O)CCCN(C)C)(COC(=O)C(CCCCC)CCCCC)COC(=O)C(CCCCC)CCCCC [Example 4, 2-(((4-(Dimethylamino)butanoyl)oxy)methyl)-2-((heptanoyloxy)methyl)propane-1,3-diyl bis(2-pentylheptanoate)] | – | – | – | – | – | – | – | – | –
96% | 120 µg/mL | 83 nm | 28 nM | CCCCCCC(=O)OCC(COC(=O)CCCCN(C)C)(COC(=O)C(CCCCC)CCCCC)COC(=O)C(CCCCC)CCCCC [Example 5, 2-(((5-(Dimethylamino)pentanoyl)oxy)methyl)-2-((heptanoyloxy)methyl)propane-1,3-diyl bis(2-pentylheptanoate)] | – | – | – | – | – | – | – | – | –
93% | 389 µg/mL | 77 nm | 41 nM | CCCCCCCC(=O)OCC(COC(=O)CCCN(C)C)(COC(=O)C(CCCCCC)CCCCCC)COC(=O)C(CCCCCC)CCCCCC [Example 6, 2-(((4-(Dimethylamino)butanoyl)oxy)methyl)-2-((octanoyloxy)methyl)propane-1,3-diyl bis(2-hexyloctanoate)] | – | – | – | – | – | – | – | – | –
97% | 376 µg/mL | 73 nm | 1.2 nM | CCCCCCCC(=O)OCC(COC(=O)CCCCN(C)C)(COC(=O)C(CCCCCC)CCCCCC)COC(=O)C(CCCCCC)CCCCCC [Example 7, 2-(((5-(Dimethylamino)pentanoyl)oxy)methyl)-2-((octanoyloxy)methyl)propane-1,3-diyl bis(2-hexyloctanoate)] | – | – | – | – | – | – | – | – | –
– | – | – | – | CCCCCCCCCC(=O)OCC(COC(=O)CCCCCCCCC)(COC(=O)CCCCN(C)C)COC(=O)CCC(CCC)C(CCC)CCC (stereo not drawn) [Example 16, 2-(((5-(Dimethylamino)pentanoyl)oxy)methyl)-2-(((4,5-dipropyloctanoyl)oxy)methyl)propane-1,3-diyl didecanoate] | 15% | 94% | 134 µg/mL | 109 nm | 141560 cps | 96% | 103 nm | 124 µg/mL | 74%
